Source: ChEMBL document CHEMBL2401683, “Discovery of novel andrographolide derivatives as cytotoxic agents” (2013)
Active and inactive are the calls of the source. The calls are words filed in the database; no cut-off is given here.

How the values were obtained:
[1] = test system: KB; assay: Growth inhibition of human KB cells after 72 hrs by SRB assay; type: functional
[2] = test system: DU-145; assay: Growth inhibition of human DU145 cells after 72 hrs by SRB assay; type: functional; details: DU-145, 72 h
[3] = test system: A549; assay: Growth inhibition of human A549 cells after 72 hrs by SRB assay; type: functional; details: A549, 72 h
[4] = Growth inhibition of human KBVIN cells after 72 hrs by SRB assay; type: functional
[5] = test system: PC-3; assay: Disruption of microtubule dynamics in human PC3 cells at 30 to 60 uM after 24 hrs by DAPI staining-based confocal microscopic analysis; type: functional, cell-based
[6] = test system: PC-3; assay: Induction of metaphase cell accumulation in human PC3 cells at 30 to 60 uM after 24 hrs by DAPI staining-based confocal microscopic analysis; type: functional

For `C=C1CC[C@@H]2[C@](C)(COC(=O)c3cnccn3)[C@H](OC(=O)c3cnccn3)CC[C@@]2(C)[C@@H]1/C=C/C1=CCOC1=O`, the GI50 [1] was 8.24 µM, the GI50 [2] was 8.63 µM and the GI50 [3] was 4.87 µM. The GI50 [4] was 9.19 µM.
In the case of `C=C1CC[C@@H]2[C@]3(C)CO[C@@H](c4ccc([N+](=O)[O-])cc4)O[C@@H]3CC[C@@]2(C)[C@@H]1/C=C/C1=CCOC1=O`, the GI50 [1] is reported as > 30 µM, the GI50 [2] is reported as > 30 µM and the GI50 [3] is reported as 30.8 µM. The GI50 [4] was > 30 µM.
In the case of `C=C1CC[C@@H]2[C@](C)(COC(=O)CCCCC3CCSS3)[C@H](O)CC[C@@]2(C)[C@@H]1/C=C/C1=CCOC1=O` (stereo not given in full), the GI50 [1] is reported as > 30 µM, the GI50 [2] is reported as > 30 µM and the GI50 [3] is reported as > 30 µM. The GI50 [4] was > 30 µM.
With `C=C1CC[C@@H]2[C@](C)(COC(=O)CCN3CCOCC3)[C@H](OC(=O)CCN3CCOCC3)CC[C@@]2(C)[C@@H]1/C=C/C1=CCOC1=O` the GI50 [1] was > 30 µM, the GI50 [2] was > 30 µM and the GI50 [3] was > 30 µM. The GI50 [4] was > 30 µM.
`C=C1CC[C@@H]2[C@](C)(COC(=O)C3CCCN3C(=O)OC(C)(C)C)[C@H](OC(=O)C3CCCN3C(=O)OC(C)(C)C)CC[C@@]2(C)[C@@H]1/C=C/C1=CCOC1=O` (stereo not given in full) gave a GI50 [1] of 12.5 µM, a GI50 [2] of 11.1 µM and a GI50 [3] of 10.2 µM. For the same compound, the GI50 [4] was 11.1 µM.
`C=C1CC[C@@H]2[C@](C)(COC(=O)CCCCC3CCSS3)[C@H](OC(=O)CCCCC3CCSS3)CC[C@@]2(C)[C@@H]1/C=C/C1=CCOC1=O` (stereo not given in full) showed a GI50 [1] of 11.7 µM, a GI50 [2] of 11.8 µM and a GI50 [3] of 10.2 µM. The GI50 [4] was 12.9 µM.
With `C=C1CC[C@@H]2[C@](C)(COC(=O)C3CCN(C)CC3)[C@H](OC(=O)C3CCN(C)CC3)CC[C@@]2(C)[C@@H]1/C=C/C1=CCOC1=O` the GI50 [1] was 2.55 µM, the GI50 [2] was 2.27 µM and the Activity [5] was “Active”. The GI50 [3] was 1.46 µM, the GI50 [4] was 3 µM and the Activity [6] was “inactive”.
For `C=C1CC[C@@H]2[C@]3(C)CO[C@@H](c4ccco4)O[C@@H]3CC[C@@]2(C)[C@@H]1/C=C/C1=CCOC1=O`, the GI50 [1] was 36.4 µM, the GI50 [2] was 32.9 µM and the GI50 [3] was 34 µM. For the same compound, the GI50 [4] was 32.7 µM.
Compound `C=C1CC[C@@H]2[C@]3(C)CO[C@@H](c4ccc(OC)cc4)O[C@@H]3CC[C@@]2(C)[C@@H]1/C=C/C1=CCOC1=O` has a GI50 [1] of 32.9 µM, a GI50 [2] of 32.1 µM and a GI50 [3] of 26.9 µM. For the same compound, the GI50 [4] was > 30 µM.
Work on `C=C1CC[C@@H]2[C@]3(C)CO[C@@H](c4ccc(C(F)(F)F)cc4)O[C@@H]3CC[C@@]2(C)[C@@H]1/C=C/C1=CCOC1=O` yielded a GI50 [1] of 23.4 µM, a GI50 [2] of 17.2 µM and a GI50 [3] of 16.9 µM. The GI50 [4] was 18.3 µM.
For `C=C1CC[C@@H]2[C@](C)(COC(=O)c3cccnc3)[C@H](OC(=O)c3cccnc3)CC[C@@]2(C)[C@@H]1/C=C/C1=CCOC1=O`, the GI50 [1] was > 30 µM, the GI50 [2] was > 30 µM and the GI50 [3] was > 30 µM. For the same compound, the GI50 [4] was > 30 µM.
For `C=C1CC[C@@H]2[C@](C)(COC(=O)CN(C)C)[C@H](OC(=O)CN(C)C)CC[C@@]2(C)[C@@H]1/C=C/C1=CCOC1=O`, the GI50 [1] was > 30 µM, the GI50 [2] was > 30 µM and the GI50 [3] was > 30 µM. The GI50 [4] was > 30 µM.
For `C=C1CC[C@@H]2[C@]3(C)CO[C@@H](c4ccc(O)cc4)O[C@@H]3CC[C@@]2(C)[C@@H]1/C=C/C1=CCOC1=O`, the GI50 [1] was 23.7 µM, the GI50 [2] was 19.1 µM and the GI50 [3] was 22.8 µM. For the same compound, the GI50 [4] was 22.6 µM.
Compound `C=C1CC[C@@H]2[C@](C)(COC(=O)C3CCCN3C(=O)OC(C)(C)C)[C@H](O)CC[C@@]2(C)[C@@H]1/C=C/C1=CCOC1=O` (stereo not given in full) has a GI50 [1] of 20.1 µM, a GI50 [2] of 18.8 µM and a GI50 [3] of 18.8 µM. For the same compound, the GI50 [4] was 17.9 µM.
In the case of `C=C1CC[C@@H]2[C@](C)(CO)[C@H](O)CC[C@@]2(C)[C@@H]1C/C=C1/C(=O)OC[C@H]1O` [ANDROGRAPHOLIDE], the GI50 [1] is reported as 13.2 µM, the GI50 [2] is reported as 16 µM and the GI50 [3] is reported as 13.4 µM. For the same compound, the GI50 [4] was 13.8 µM and the Activity [6] was “Active”.
For `C=C1CC[C@@H]2[C@](C)(COC(=O)CCN3CCOCC3)[C@H](O)CC[C@@]2(C)[C@@H]1/C=C/C1=CCOC1=O`, the GI50 [1] was > 30 µM, the GI50 [2] was 30.3 µM and the GI50 [3] was > 30 µM. It also gave a GI50 [4] of 30 µM.
With `C=C1CC[C@@H]2[C@](C)(COC(=O)CCN(C)C)[C@H](OC(=O)CCN(C)C)CC[C@@]2(C)[C@@H]1/C=C/C1=CCOC1=O` the GI50 [1] was > 30 µM, the GI50 [2] was 25.3 µM and the GI50 [3] was 32 µM. The GI50 [4] was 31.7 µM.
For `C=C1CC[C@@H]2[C@]3(C)CO[C@@H](c4ccc(N(C)C)cc4)O[C@@H]3CC[C@@]2(C)[C@@H]1/C=C/C1=CCOC1=O`, the GI50 [1] was > 30 µM, the GI50 [2] was > 30 µM and the GI50 [3] was 33 µM. The GI50 [4] was > 30 µM.
